According to ChEMBL document CHEMBL4507265 (2021):

Assays:
[1] = target: Mitotic checkpoint serine/threonine-protein kinase BUB1 (Homo sapiens) (UniProt O43683); conditions: Compound concentration 1000.0 nM
[2] = target: Casein kinase I isoform gamma-2 (Homo sapiens) (UniProt P78368); conditions: Compound concentration 1000.0 nM
[3] = target: Casein kinase I isoform gamma-3 (Homo sapiens) (UniProt Q9Y6M4); conditions: Compound concentration 1000.0 nM
[4] = target: Fibroblast growth factor receptor 4 (Homo sapiens) (UniProt P22455); conditions: Compound concentration 1000.0 nM
[5] = target: Serine/threonine-protein kinase ICK (Homo sapiens) (UniProt Q9UPZ9); conditions: Compound concentration 1000.0 nM
[6] = test system: Mast/stem cell growth factor receptor Kit (Homo sapiens), P10721 [V559D,V654A]; conditions: Compound concentration 1000.0 nM
[7] = target: Serine/threonine-protein kinase PAK 3 (Homo sapiens) (UniProt O75914); conditions: Compound concentration 1000.0 nM
[8] = target: Serine/threonine-protein kinase PAK 6 (Homo sapiens) (UniProt Q9NQU5); conditions: Compound concentration 1000.0 nM
[9] = target: Phosphatidylinositol 4-phosphate 3-kinase C2 domain-containing subunit beta (Homo sapiens) (UniProt O00750); conditions: Compound concentration 1000.0 nM
[10] = target: Serine/threonine-protein kinase N2 (Homo sapiens) (UniProt Q16513); conditions: Compound concentration 1000.0 nM
[11] = target: Serine/threonine-protein kinase PLK1 (Homo sapiens) (UniProt P53350); conditions: Compound concentration 1000.0 nM
[12] = target: Histamine H3 receptor (Homo sapiens) (UniProt Q9Y5N1); conditions: Compound concentration 10.0 uM
[13] = target: Sigma intracellular receptor 2 (Homo sapiens, UniProt Q5BJF2); conditions: Compound concentration 10.0 uM
[14] = target: 5-hydroxytryptamine receptor 2C (Homo sapiens, UniProt P28335); assay: GPCRScan assay: inhibition of 5-HT2C; design: radioligand conc. used [nm] 1.0 – 2.5, parental cells HEK T
[15] = target: L-type calcium channel, dihydropyridine site (Cav1.2 alpha-1C) (Homo sapiens, UniProt Q13936); assay: Inhibition of Calcium Channel L-Type, Dihydropyridine at 10 µM in the Eurofins-Panlabs radioligand binding assay (Eurofins_assay_214600); design: ligand concentration 0.1 nM, non-specific ligand with concentration 1 µM Nitrendipine, incubation time 90 min, incubation temperature 25 °C; conditions: Wistar, rat, rat cerebral cortex preparation, probe [3H] Nitrendipine, 0.1 nM; compound concentration 10 uM; target entry is the homologue from another species
[16] = target: Epidermal growth factor receptor (Homo sapiens) (UniProt P00533); assay: Inhibition of Epidermal Growth Factor (EGF) at 10 µM in the Eurofins-Panlabs radioligand binding assay (Eurofins_assay_225510); conditions: Compound concentration 10.0 uM
[17] = target: GABA-A receptor; anion channel (Rattus norvegicus) (UniProt O09028+P15431+P18506+P18508+P19969+P20236+P23574+P23576+P28471+P28473+P30191+P62813+P63079+P63138+Q91ZM7+Q9ES14); assay: Inhibition of GABAA, Muscimol, Central at 10 µM in the Eurofins-Panlabs radioligand binding assay (Eurofins_assay_226500); type: protein-complex assay; conditions: Compound concentration 10.0 uM
[18] = species: Rattus norvegicus; assay: Inhibition of Imidazoline I2, Central at 10 µM in the Eurofins-Panlabs radioligand binding assay (Eurofins_assay_241000); design: ligand concentration 2 nM; conditions: Compound concentration 10.0 uM
[19] = target: Cysteinyl leukotriene receptor 1 (Homo sapiens) (UniProt Q9Y271); assay: Inhibition of Leukotriene, Cysteinyl CysLT1 at 10 µM in the Eurofins-Panlabs radioligand binding assay (Eurofins_assay_250460); design: ligand concentration 0.3 nM, non-specific ligand with concentration 0.3 µM Leukotriene D4, incubation time 30 min, incubation temperature 25 °C; conditions: Compound concentration 10.0 uM
[20] = target: Acetylcholine receptor subunit alpha (Homo sapiens) (UniProt P02708); assay: Inhibition of Nicotinic Acetylcholine D1, Bungarotoxin at 10 µM in the Eurofins-Panlabs radioligand binding assay (Eurofins_assay_258700); conditions: Compound concentration 10.0 uM
[21] = target: hERG (KCNH2) (Homo sapiens, UniProt Q12809); assay: Inhibition of Potassium Channel hERG at 10 µM in the Eurofins-Panlabs radioligand binding assay (Eurofins_assay_265900); design: ligand concentration 1.5 nM, non-specific ligand with concentration Astemizole, incubation time 60 min, incubation temperature 25 °C; conditions: HEK-293 cells that express recombinant human hERG, probe [3H] Astemizole, 1.5 nM, compound concentration 10 uM
[22] = species: Rattus norvegicus; assay: Inhibition of Rolipram at 10 µM in the Eurofins-Panlabs radioligand binding assay (Eurofins_assay_268811); type: protein assay; design: ligand concentration 1.8 nM; conditions: Compound concentration 10.0 uM
[23] = target: Sigma non-opioid intracellular receptor 1 (Homo sapiens) (UniProt Q99720); assay: Sigma 1 Eurofins-Panlabs radioligand binding assay; design: ligand concentration 8 nM; conditions: Compound concentration 10.0 uM
[24] = target: Adenosine receptor A2a (Homo sapiens) (UniProt P29274); conditions: Compound concentration 10.0 uM
[25] = target: Beta-1 adrenergic receptor (Homo sapiens) (UniProt P08588); conditions: Compound concentration 10.0 uM
[26] = target: Estrogen receptor (Homo sapiens) (UniProt P03372); conditions: Compound concentration 10.0 uM
[27] = target: T1, Glutamate NMDA receptor (Rattus norvegicus) (UniProt P35439+Q00959+Q00960+Q00961+Q62645+Q8VHN2+Q9R1M7); conditions: Compound concentration 10.0 uM
[28] = target: T1, Glutamate NMDA receptor (Rattus norvegicus); conditions: Compound concentration 10.0 uM; remark: listed apart in the source
[29] = target: Histamine H1 receptor (Homo sapiens) (UniProt P35367); conditions: Compound concentration 10.0 uM
[30] = target: Histamine H3 receptor (Homo sapiens) (UniProt Q9Y5N1); conditions: Compound concentration 10.0 uM; remark: listed apart in the source
[31] = target: T2, Muscarinic acetylcholine receptor M2 (Homo sapiens) (UniProt P08172); conditions: Compound concentration 10.0 uM
T2 sequence (whole entry): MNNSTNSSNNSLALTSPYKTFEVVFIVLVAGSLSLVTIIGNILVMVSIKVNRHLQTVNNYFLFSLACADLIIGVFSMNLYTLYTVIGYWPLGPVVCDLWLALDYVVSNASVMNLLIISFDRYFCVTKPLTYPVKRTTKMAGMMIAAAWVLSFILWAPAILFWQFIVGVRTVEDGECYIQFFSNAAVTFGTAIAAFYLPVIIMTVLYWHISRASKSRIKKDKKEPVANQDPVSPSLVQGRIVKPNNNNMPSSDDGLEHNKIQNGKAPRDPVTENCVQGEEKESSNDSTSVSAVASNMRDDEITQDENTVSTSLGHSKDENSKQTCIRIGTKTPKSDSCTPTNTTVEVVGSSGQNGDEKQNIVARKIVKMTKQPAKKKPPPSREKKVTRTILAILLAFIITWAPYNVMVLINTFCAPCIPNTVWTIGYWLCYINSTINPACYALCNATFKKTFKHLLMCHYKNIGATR

[32] = target: Delta-type opioid receptor (Homo sapiens) (UniProt P41143); conditions: Compound concentration 10.0 uM

Chain of 5-hydroxytryptamine receptor 2C (P28335 whole entry): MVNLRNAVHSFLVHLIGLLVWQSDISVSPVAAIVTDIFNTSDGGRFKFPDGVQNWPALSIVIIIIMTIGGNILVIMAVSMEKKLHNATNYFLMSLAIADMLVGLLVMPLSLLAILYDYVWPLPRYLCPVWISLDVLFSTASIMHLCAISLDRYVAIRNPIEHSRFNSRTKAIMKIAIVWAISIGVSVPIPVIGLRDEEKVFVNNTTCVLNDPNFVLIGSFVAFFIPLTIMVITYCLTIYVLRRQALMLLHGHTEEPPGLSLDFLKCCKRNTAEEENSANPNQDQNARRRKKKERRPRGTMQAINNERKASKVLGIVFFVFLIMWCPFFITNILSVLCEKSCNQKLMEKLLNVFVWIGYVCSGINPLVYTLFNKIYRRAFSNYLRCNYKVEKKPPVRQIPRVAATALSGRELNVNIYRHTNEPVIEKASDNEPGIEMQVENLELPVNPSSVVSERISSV
Chain of Serine/threonine-protein kinase N2 (Homo sapiens) (Q16513 whole entry, looked up): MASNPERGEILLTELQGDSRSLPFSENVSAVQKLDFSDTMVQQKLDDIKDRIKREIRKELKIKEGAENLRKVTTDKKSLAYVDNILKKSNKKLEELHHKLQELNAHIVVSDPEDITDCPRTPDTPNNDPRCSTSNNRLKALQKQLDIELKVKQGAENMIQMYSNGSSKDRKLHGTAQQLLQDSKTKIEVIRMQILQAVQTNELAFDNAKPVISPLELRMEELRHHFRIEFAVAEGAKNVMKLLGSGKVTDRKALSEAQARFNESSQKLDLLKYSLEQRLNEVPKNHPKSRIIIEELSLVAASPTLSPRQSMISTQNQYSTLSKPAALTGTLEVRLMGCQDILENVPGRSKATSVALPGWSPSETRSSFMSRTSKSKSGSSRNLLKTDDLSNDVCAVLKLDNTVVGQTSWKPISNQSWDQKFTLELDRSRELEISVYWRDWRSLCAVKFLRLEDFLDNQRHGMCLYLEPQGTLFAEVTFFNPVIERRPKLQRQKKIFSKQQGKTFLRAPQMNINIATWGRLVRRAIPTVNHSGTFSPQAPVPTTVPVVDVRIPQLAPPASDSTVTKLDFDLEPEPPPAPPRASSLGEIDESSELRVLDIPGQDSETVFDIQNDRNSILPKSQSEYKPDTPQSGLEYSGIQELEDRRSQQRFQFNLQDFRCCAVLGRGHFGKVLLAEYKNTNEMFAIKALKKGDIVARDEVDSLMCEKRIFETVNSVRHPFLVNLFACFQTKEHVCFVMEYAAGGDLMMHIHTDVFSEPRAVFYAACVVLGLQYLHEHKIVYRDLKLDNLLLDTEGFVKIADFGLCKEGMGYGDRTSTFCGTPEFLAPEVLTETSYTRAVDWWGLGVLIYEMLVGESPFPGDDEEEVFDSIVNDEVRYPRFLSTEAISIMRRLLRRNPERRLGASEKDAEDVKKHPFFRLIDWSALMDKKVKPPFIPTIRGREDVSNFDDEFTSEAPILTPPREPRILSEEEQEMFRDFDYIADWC
Chain of Mast/stem cell growth factor receptor Kit (Homo sapiens), P10721 [V559D,V654A] (P10721 whole entry V559D/V654A): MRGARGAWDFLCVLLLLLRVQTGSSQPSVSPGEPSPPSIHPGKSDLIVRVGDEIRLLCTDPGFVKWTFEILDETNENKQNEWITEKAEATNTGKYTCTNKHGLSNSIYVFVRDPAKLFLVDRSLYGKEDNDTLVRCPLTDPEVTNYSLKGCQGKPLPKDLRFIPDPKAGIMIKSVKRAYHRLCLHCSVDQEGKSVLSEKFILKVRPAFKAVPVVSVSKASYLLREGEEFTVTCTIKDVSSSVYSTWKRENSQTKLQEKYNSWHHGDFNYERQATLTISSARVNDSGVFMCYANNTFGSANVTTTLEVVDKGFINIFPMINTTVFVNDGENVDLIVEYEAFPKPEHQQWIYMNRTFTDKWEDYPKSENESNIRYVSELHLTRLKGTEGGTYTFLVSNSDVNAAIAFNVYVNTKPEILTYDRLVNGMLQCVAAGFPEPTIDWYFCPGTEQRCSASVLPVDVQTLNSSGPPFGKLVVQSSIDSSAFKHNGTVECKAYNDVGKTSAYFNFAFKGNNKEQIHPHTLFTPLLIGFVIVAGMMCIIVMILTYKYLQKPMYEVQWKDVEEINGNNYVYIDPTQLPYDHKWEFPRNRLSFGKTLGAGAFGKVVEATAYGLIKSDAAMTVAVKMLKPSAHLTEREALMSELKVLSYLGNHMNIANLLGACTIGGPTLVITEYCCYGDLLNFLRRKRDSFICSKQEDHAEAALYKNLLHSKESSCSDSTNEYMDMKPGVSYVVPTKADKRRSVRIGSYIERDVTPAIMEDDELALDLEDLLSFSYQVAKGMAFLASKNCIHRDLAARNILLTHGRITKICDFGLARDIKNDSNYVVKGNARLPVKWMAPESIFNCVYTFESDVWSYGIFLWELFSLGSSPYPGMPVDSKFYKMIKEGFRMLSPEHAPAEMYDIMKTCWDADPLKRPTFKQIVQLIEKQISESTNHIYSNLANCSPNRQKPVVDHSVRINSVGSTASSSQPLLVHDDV
Chain of Phosphatidylinositol 4-phosphate 3-kinase C2 domain-containing subunit beta (Homo sapiens) (O00750 whole entry, the tested form may be a part): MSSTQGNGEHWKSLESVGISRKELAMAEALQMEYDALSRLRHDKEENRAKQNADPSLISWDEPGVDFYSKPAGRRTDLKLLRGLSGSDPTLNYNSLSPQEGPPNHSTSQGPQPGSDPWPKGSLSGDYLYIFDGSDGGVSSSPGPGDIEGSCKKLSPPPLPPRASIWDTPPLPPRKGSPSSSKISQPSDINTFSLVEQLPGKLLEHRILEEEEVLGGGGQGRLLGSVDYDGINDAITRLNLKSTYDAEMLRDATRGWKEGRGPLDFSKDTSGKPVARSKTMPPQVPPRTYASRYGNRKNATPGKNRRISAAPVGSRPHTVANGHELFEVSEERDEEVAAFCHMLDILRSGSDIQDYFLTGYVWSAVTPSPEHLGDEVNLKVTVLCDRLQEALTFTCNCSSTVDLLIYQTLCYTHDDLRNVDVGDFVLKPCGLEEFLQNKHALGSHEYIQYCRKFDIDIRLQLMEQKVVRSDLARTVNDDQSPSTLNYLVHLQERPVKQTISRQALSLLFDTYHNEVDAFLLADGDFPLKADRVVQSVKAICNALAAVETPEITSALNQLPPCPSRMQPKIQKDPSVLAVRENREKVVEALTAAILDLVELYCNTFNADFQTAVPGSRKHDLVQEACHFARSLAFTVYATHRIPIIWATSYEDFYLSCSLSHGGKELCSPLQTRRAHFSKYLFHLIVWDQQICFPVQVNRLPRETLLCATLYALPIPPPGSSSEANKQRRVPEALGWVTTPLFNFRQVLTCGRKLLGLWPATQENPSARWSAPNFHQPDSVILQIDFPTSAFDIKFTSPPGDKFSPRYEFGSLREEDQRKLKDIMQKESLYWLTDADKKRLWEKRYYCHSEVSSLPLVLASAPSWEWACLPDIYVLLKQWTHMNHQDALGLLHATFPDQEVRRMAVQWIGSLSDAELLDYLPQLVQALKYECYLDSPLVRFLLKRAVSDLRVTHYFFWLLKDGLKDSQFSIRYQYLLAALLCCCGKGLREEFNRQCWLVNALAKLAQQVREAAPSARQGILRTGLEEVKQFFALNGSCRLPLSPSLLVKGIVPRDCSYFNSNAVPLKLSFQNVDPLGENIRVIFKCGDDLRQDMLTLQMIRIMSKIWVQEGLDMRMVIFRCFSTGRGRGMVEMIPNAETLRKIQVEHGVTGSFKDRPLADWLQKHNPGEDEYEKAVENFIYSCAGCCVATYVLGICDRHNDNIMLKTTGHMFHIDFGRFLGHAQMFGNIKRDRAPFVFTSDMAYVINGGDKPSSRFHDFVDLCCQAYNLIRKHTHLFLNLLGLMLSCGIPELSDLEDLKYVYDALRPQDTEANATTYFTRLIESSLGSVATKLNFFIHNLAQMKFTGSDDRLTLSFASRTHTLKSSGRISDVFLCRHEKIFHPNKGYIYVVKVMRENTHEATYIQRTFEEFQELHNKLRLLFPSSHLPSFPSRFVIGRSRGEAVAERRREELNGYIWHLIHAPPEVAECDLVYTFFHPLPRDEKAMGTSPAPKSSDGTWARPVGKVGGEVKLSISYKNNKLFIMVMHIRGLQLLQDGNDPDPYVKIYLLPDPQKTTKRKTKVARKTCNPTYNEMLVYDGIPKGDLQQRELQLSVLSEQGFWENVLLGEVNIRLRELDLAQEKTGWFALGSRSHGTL
Chain of Sigma intracellular receptor 2 (Q5BJF2 whole entry): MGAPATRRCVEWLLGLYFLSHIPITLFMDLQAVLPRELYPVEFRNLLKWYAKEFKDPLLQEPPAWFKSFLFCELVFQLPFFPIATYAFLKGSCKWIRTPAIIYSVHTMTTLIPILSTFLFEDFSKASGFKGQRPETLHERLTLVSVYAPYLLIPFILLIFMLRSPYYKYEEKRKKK
Chain of Fibroblast growth factor receptor 4 (Homo sapiens) (P22455 22-802 limits assumed): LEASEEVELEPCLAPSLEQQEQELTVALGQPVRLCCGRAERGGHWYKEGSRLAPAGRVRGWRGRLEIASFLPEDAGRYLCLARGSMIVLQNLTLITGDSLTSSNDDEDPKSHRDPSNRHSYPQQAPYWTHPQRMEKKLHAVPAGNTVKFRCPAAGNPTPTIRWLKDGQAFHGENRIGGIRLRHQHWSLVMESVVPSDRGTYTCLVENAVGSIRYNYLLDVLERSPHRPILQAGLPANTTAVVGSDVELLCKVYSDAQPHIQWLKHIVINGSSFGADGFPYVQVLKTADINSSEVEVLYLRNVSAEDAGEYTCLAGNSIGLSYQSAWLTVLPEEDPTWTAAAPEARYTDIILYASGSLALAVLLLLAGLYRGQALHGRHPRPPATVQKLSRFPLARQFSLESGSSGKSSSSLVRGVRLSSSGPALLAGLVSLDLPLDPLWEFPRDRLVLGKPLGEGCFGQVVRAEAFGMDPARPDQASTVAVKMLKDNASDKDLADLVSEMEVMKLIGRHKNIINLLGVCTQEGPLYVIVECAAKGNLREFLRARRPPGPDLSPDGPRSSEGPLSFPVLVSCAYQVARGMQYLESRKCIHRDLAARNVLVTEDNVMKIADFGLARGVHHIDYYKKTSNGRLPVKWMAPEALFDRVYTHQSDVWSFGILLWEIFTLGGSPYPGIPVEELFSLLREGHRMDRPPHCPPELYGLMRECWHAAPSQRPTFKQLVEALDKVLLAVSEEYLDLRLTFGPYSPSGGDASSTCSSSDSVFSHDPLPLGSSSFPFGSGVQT

| SMILES | residual activity [2] | residual activity [3] | residual activity [4] | residual activity [5] | residual activity [6] | residual activity [7] | residual activity [8] | residual activity [9] | residual activity [10] | residual activity [11] | inhibition [13] | also measured |
| --- | --- | --- | --- | --- | --- | --- | --- | --- | --- | --- | --- | --- |
| NS(=O)(=O)c1cc(NC(=O)C2(c3ccccc3Cl)CC2)ccc1Oc1cccc(Cl)c1 [BAY-207] | 82% | 100% | 100% | 100% | 100% | 64% | 100% | 100% | 83% | 92% | 82% | residual activity [1]: 95%; inhibition [12]: 3.87% |
| NS(=O)(=O)c1cc(NC(=O)Cc2ccccc2)ccc1Oc1cccc(Cl)c1 [BAY-1797] | 100% | 74% | 95% | 100% | 100% | 85% | 100% | 91% | 90% | 73% | 59.5% | Ki ([14]; read-out: Ki): 6.52 µM; Ki ([14]; read-out: pKi (converted)): 5.89 µM; inhibition at 90 min, 10 µM [15]: 21% (not active); inhibition [16]: 2%; inhibition [17]: 15%; inhibition [18]: 10%; inhibition [19]: 8%; inhibition [20]: -4%; inhibition at 60 min, 10 µM [21]: 8% (not active); inhibition [22]: 8%; inhibition [23]: 19%; inhibition [24]: 14%; inhibition [25]: 3%; inhibition [26]: 5%; inhibition [27]: 23%; inhibition [28]: -9%; inhibition [29]: 15%; inhibition [30]: 0%; inhibition [31]: 4%; inhibition [32]: 4% |
